The values below come from patent publication US5532233A, “Hetrazepine compounds which have useful pharmaceutical utility” (priority 1986, dated 1996).

Assay [1] deals with PAF-induced aggregation of human thrombocytes. Description: PAF-induced aggregation of human thrombocytes in vitro (inhibition of blood platelet aggregation). Particulars: read-out: IC50 value PAF. Type of assay: cell-based. As to the method: The PAF-antagonistic activity of some compounds of formulae Ia and Ib was tested in vitro on the inhibition of blood platelet aggregation.
1. Tests in vitro: inhibition of blood platelet aggregation
The PAF-induced aggregation of human thrombocytes in vitro was used to determine the PAF antagonistic activity of substances. In order to obtain thrombocyte-rich plasma (TRP) blood is taken from an uncongested vein using a plastic syringe which contains 3.8% sodium citrate solution. The ratio of sodium citrate solution to blood is 1:9. After careful mixing the citrated blood is centrifuged for 20 minutes at 150×g (1200 rpm). The thrombocyte aggregation is measured using the method developed by Born and Cross (G. V. R. Born and M. J. Cross, J. Physiol. 168, 178 (1963)), with PAF being added to the TRP with constant stirring to initiate aggregation.
The test substance is added in a volume of 10 μl 2-3 minutes before aggregation is initiated. The solvent used is either distilled water, ethanol and/or dimethyl sulphoxide. Control mixtures are given corresponding volumes of these solvents. After the initial absorption has been recorded (2-3 minutes) aggregation is induced with PAF (5×10^-8 M).
The peak of the first aggregation wave is used in order to assess the effects of the substance. The PAF-induced maximum absorption rate (=maximum aggregation×100%) is tested at the same time in a parallel mixture (=control mixture in one of the channels of the 2-channel aggregometer) to each test mixture (second channel) and used as a 100% value. The aggregation value achieved under the influence of the test substance is […].
Each test substance is tested at concentrations of from 10^-3 to 10^-8 M with a random sampling scope of n=4 to determine any inhibitory activity on the PAF-induced thrombocyte aggregation. A concentration-activity curve is then drawn up from 3 concentrations and the IC50 is determined (concentration for a 50% inhibition of aggregation). With some compounds, only approximate tests for guidance are carried out.

Assay [2] has as its target benzodiazepine receptor. Description: benzodiazepine receptor bonding test using [^3 H] flunitrazepam as radioligand (FNB). It is filed as binding.
For assay [3], the system named is PAF. Particulars: PAF-antagonistic activity; Kornecki et al.; read-out: IC50 (concentration for a 50% inhibition of aggregation); cited from earlier work.
The test system of assay [4] is PAF-induced aggregation of human thrombocytes. Particulars: PAF-antagonistic activity known from European Patent Application No. 176 927; read-out: IC50 (the concentration at which a 50% inhibition of aggregation is measured); cited from earlier work.
The mark [5] stands for this setting: [^3 H] flunitrazepam, racemate tested unless otherwise noted, read-out: IC50 value FNB (flunitrazepam bonding test).
The mark [6] stands for this setting: inhibition of PAF-induced (5×10^-8 M) human thrombocyte aggregation, racemate tested unless otherwise noted.
Where [7] appears, read: [^3 H] flunitrazepam as radioligand, read-out: value in the benzodiazepine receptor bonding test.

Read-outs that look alike come from different tables or passages of the source. A value given as a limit tells only on which side of the number the result lay.

`Cc1nnc2n1-c1sc3c(c1C(c1ccccc1Cl)=NC2)C(C(=O)N(C)C)CC3` (stereo not shown) [Example 46]: the IC50 in assay [1] (Homo sapiens) amounted to 4800 nM; in assay [2] (setting [5]), 1460 nM.
As to `Cc1nnc2n1-c1sc3c(c1C(c1ccccc1Cl)=NC2)CC(C(=O)N1CCOCC1)C3` (stereo not shown) [Example 7, 3-(Morpholin-4-yl-carbonyl)-5-(2-chlorophenyl)-10-methyl-3,4-dihydro-2H,7H-cyclopenta[4,5]thieno[3,2-f][1,2,4]triazolo[4,3-a][1,4]diazepine], the IC50 amounted to 300 nM in assay [1] (Homo sapiens) and 3600 nM in assay [2] (setting [5]).
As to `Cc1nnc2n1-c1sc3c(c1C(c1ccccc1Cl)=NC2)CC(C1=NCCN1)CC3` (stereo not shown) [Example 33, 4-[2-Imidazolin-2-yl]-6-(2-chlorophenyl)-2,3,4,5-tetrahydro-8H-[1]benzothieno[3,2-f][1,2,4]triazolo[4,3-a][1,4]diazepine], the IC50 in assay [1] (setting [6]) was 2300 nM.
On to `Cc1nnc2n1-c1ccc(Cl)cc1C(c1ccccc1Cl)=NC2` [Triazolam, reference compound], for which the IC50 was 9000 nM in assay [1] (Homo sapiens), 1.4 nM in assay [2] (setting [5]) and 9000 nM in assay [3].
Turning to `Cc1nnc2n1-c1sc3c(c1C(c1ccccc1Cl)=NC2)CC(C(=O)NCC(=O)N1CCOCC1)C3` (stereo not shown) [Example 58], the IC50 came to 400 nM in assay [1] (Homo sapiens) and 380 nM in assay [2] (setting [5]).
Take `Cc1nnc2n1-c1sc3c(c1C(c1ccccc1Cl)=NC2)CCNC3` [Compound (B), 6-(2-chlorophenyl)-11-methyl-2,3,4,5-tetrahydro-8-H-pyrido[4',3':4,5]thieno-[3,2-f][1,2,4]triazolo[4,3-a][1,4]diazepine, reference compound]: the IC50 in assay [1] (Homo sapiens) is less than 7000 nM; in assay [2] (setting [7]) it was 35 nM; in assay [2] (setting [5]), 35 nM; in assay [4], 10000 nM.
Take `CC(=O)OCC1Cc2sc3c(c2C1)C(c1ccccc1Cl)=NCc1nncn1-3` (stereo not shown) [Example 68]: the IC50 in assay [1] (setting [6]) is 400 nM.
For the compound `Cc1cnc2n1-c1sc3c(c1C(c1ccccc1Cl)=NC2)CC(CO)CC3` (stereo not shown) [Example 64], the IC50 in assay [1] (setting [6]) was determined as 800 nM.
`CCN(CC)C(=O)C1CCc2sc3c(c2C1)C(c1ccccc1Cl)=NCc1ncc(C)n1-3` (stereo not shown) [Example 11]: the IC50 in assay [1] (Homo sapiens) was 500 nM; in assay [2] (setting [5]), 5000 nM.
With `CC(=S)N1CCc2c(sc3c2C(c2ccccc2Cl)=NCc2nnc(C)n2-3)C1` [Example 25, 3-Thioacetyl-6-(2-chlorophenyl)-11-methyl-2,3,4,5-tetrahydro-8H-pyrido[4',3':4,5]thieno[3,2-f][1,2,4]triazolo[4,3-a][1,4]diazepine], the figures for the IC50 in assay [1] (Homo sapiens) and in assay [2] (setting [5]) were 1000 nM and 2300 nM, respectively.
In the same order, the values of `Cc1cnc2n1-c1sc3c(c1C(c1ccccc1Cl)=NC2)CC(CN1CCOCC1)C3` (stereo not shown) [Example 113] are less than 200 nM and 3000 nM.
Turning to `CC(=O)OCC1Cc2sc3c(c2C1)C(c1ccccc1Cl)=NCc1nnc(C)n1-3` (stereo not shown) [Example 19, 3-Acetoxymethyl-5-(2-chlorophenyl)-10-methyl-3,4-dihydro-2H,7H-cyclopenta[4,5]thieno[3,2-f][1,2,4]triazolo[4,3-a][1,4]diazepine], the IC50 in assay [1] (setting [6]) was 600 nM.
In the case of `CC(=O)NCC(=O)N1CCc2c(sc3c2C(c2ccccc2Cl)=NCc2nnc(C)n2-3)C1` [Example 86, 3-Acetylaminomethylcarbonyl-6-(2-chlorophenyl)-11-methyl-2,3,4,5-tetrahydro-8H-pyrido[4',3':4,5]thieno[3,2-f][1,2,4]triazolo[4,3-a][1,4]diazepine], the values for the IC50 in assay [1] (Homo sapiens) and in assay [2] (setting [5]) were 1000 nM and more than 5000 nM, respectively.
In the same order, the values of `Cc1nnc2n1-c1sc3c(c1C(c1ccccc1Cl)=NC2)CC(C1=NCCO1)CC3` (stereo not shown) [Example 79] are 2200 nM and 4800 nM.
On the same counts, the results for `Cc1nnc2n1-c1sc3c(c1C(c1ccccc1Cl)=NC2)CC(CO)CC3` (stereo not shown) [Example 17, 4-(Hydroxymethyl)-6-(2-chlorophenyl)-11-methyl-2,3,4,5-tetrahydro-8H-[1]benzothieno[3,2-f][1,2]triazolo[4,3-a][1,4]diazepine] are 1800 nM and 1070 nM.
In the same order, the values of `CC(=O)OCC1CCc2sc3c(c2C1)C(c1ccccc1Cl)=NCc1nnc(C)n1-3` (stereo not shown) [Example 62] are 400 nM and 4600 nM.
As for `Cc1nnc2n1-c1sc3c(c1C(c1ccccc1Cl)=NC2)CCC(C(=O)N1CCOCC1)C3` (stereo not shown) [Example 2, 3-(Morpholin-4-yl-carbonyl)-6-(2-chlorophenyl)-11-methyl-2,3,4,5-tetrahydro-8H-[1]benzothieno[3,2-f][1,2,4]triazolo[4,3-a][1,4]diazepine], the IC50 in assay [1] (Homo sapiens) was 2500 nM; in assay [2] (setting [5]), more than 5000 nM.
As to `Cc1nnc2n1-c1sc3c(c1C(c1ccccc1Cl)=NC2)CC(CN1CCOCC1)CC3` (stereo not shown) [Example 21, 4-(N-Morpholinomethyl)-6-(2-chlorophenyl)-11-methyl-2,3,4,5-tetrahydro-8H-[1]benzothieno[3,2-f][1,2,4]triazolo[4,3-a][1,4]-diazepine], the values for the IC50 in assay [1] (Homo sapiens) and in assay [2] (setting [5]) were 300 nM and more than 5000 nM, respectively.
`Cc1nnc2n1-c1sc3c(c1C(c1ccccc1Cl)=NC2)CC(C(=O)N(C)CCO)CC3` (stereo not shown) [Example 38]: the IC50 in assay [1] (setting [6]) came out at 2700 nM.
With `Cc1nnc2n1-c1ccc(Cl)cc1C(c1ccccc1)=NC2` [Alprazolam, reference compound], the IC50 in assay [1] (Homo sapiens) is 14000 nM; in assay [2] (setting [5]) it was 5.5 nM; in assay [3] it was 14000 nM.
Consider `Cc1nnc2n1-c1sc3c(c1C(c1ccccc1Cl)=NC2)CC(CN1CCOCC1)C3` (stereo not shown) [Example 66], for which the IC50 was less than 200 nM in assay [1] (Homo sapiens) and 920 nM in assay [2] (setting [5]).
Turning to `Cc1nnc2n1-c1sc3c(c1C(c1ccccc1Cl)=NC2)CC(C(=O)N1CCOCC1)CC3` (stereo not shown) [Example 1, 4-(Morpholin-4-yl-carbonyl)-6-(2-chlorophenyl)-11-methyl-2,3,4,5-tetrahydro-8H-[1]benzothieno[3,2-f][1,2,4]triazolo[4,3-a][1,4]diazepine], the results for the IC50 in assay [1] (Homo sapiens) and in assay [2] (setting [5]) were 500 nM and more than 5000 nM, respectively.
Regarding `Cc1cnc2n1-c1sc3c(c1C(c1ccccc1Cl)=NC2)CC(C(=O)N1CCOCC1)CC3` (stereo not shown) [Example 10, 4-(Morpholin-4-yl-carbonyl)-6-(2-chlorophenyl)-11-methyl-2,3,4,5-tetrahydro-8H-[1]benzothieno[3,2-f]imidazo[1,2-a][1,4]diazepine], the IC50 in assay [1] (setting [6]) was found to be 300 nM.
`Cc1nnc2n1-c1sc3c(c1C(c1ccccc1Cl)=NC2)CC(C(=O)N1CCN(C)CC1)CC3` (stereo not shown) [Example 37]: the IC50 in assay [1] (Homo sapiens) is 1800 nM; in assay [2] (setting [5]) it was more than 5000 nM.
In the same order, the values of `CCN(CC)C(=O)C1CCc2sc3c(c2C1)C(c1ccccc1Cl)=NCc1nnc(C)n1-3` (stereo not shown) [Example 36] are 400 nM and more than 5000 nM.
In the same order, the values of `Cc1cnc2n1-c1sc3c(c1C(c1ccccc1Cl)=NC2)CC(Cn1cncn1)CC3` (stereo not shown) [Example 63] are 400 nM and more than 5000 nM.
Turning to `Cc1nnc2n1-c1sc3c(c1C(c1ccccc1Cl)=NC2)CCCC3` [Compound (A), 6-(2-chlorophenyl)-11-methyl-2,3,4,5-tetrahydro-8H-[1]benzothieno[3,2-f][1,2,4]triazolo[4,3-a][1,4]diazepine, reference compound], the IC50 is less than 2500 nM in assay [1] (Homo sapiens), 21 nM in assay [2] (setting [7]), 21 nM in assay [2] (setting [5]) and 2500 nM in assay [4].
For `CCN(CC)C(=O)C1CCc2c(sc3c2C(c2ccccc2Cl)=NCc2nnc(C)n2-3)C1` (stereo not shown) [Example 35], the IC50 in assay [1] (Homo sapiens) is 3300 nM; in assay [2] (setting [5]) it was more than 5000 nM.
As for `Cc1nnc2n1-c1sc3c(c1C(c1ccccc1Cl)=NC2)CC(C1=NC(C)(C)CN1)CC3` (stereo not shown) [Example 83], the IC50 in assay [1] (setting [6]) was found to be 900 nM.
As to `OCC1Cc2sc3c(c2C1)C(c1ccccc1Cl)=NCc1nncn1-3` (stereo not shown) [Example 18, 3-(Hydroxymethyl)-5-(2-chlorophenyl)-3,4-dihydro-2H,7H-cyclopenta[4,5]thieno[3,2-f][1,2,4]triazolo[4,3-a][1,4]diazepine], the IC50 in assay [1] (setting [6]) stood at 1300 nM.
